Experimental data reported in patent US20050143356A1, “Selective inhibition of cyclooxygenase 1 in the treatment of diabetic nephropathy” (Vanderbilt University, priority 2003, published 2005).

Key:
C57BLKS db/db mice [1] = assay: Kidney histopathology (mesangial expansion) in diabetic db/db mice; type: in vivo, mouse; conditions: treated vs. untreated (severe mesangial expansion in untreated)
Source text: (§1) The C57BLKS db/db mice is a rodent model of type II diabetes mellitus. A LepR^db (db) mutation on chromosome 4 (G→T point mutation) has been identified in the leptin receptor gene. This mutation generates a new donor splice site, leading to prematurely termination of the intracellular domain of leptin receptor and lack of leptin signal transduction. C57BLKS db/db strain is more susceptible to the development of diabetic nephropathy than the C57BL/6J db/db strain. Animals are characterized by obesity, insulin resistance, diabetes and diabetic nephropathy (DN). […] Pathologic changes include mesangial matrix expansion (>50% increase in the majority of glomeruli) and GBM thickening >25%, absence of GBM electron dense material by EM, arteriolar hyalinosis (any degree) and tubulo-interstitial fibrosis.
(§2) Cyclooxygenase-1 (COX-1) is also abundantly expressed in the kidney, however its role in health and disease remains poorly defined. […] Diabetic mice were provide the COX-1 inhibitor for 6 months, while control diabetic mice given vehicle alone. […] Glomerular filtration rate was also determined using FITC-inulin clearance.

C57BLKS db/db mice [2] = assay: Body weight gain, blood sugar and glycosylated hemoglobin in diabetic db/db mice; conditions: diabetic db/db mice vs. vehicle treated controls, 6 months
Source text: as §1
Inhibitor was given for 6 months, while the control diabetic mice were given vehicle alone (n=8 per group). Blood samples were drawn for analysis of glucose and glycosylated hemoglobin (HbA1c) monthly. The urine samples were collected monthly and albumin/creatinine ratio was determined by enzyme linked immunosorbent assays (Exocell Inc, PA, USA). Glomerular filtration rate (GFR) was determined using FITC-inulin clearance based on plasma elimination rate following single bolus intravenous injection.
as §2

## COc1ccc(-n2nc(C(F)(F)F)cc2-c2ccc(Cl)cc2)cc1 [SC8560]
C57BLKS db/db mice [1]
  mesangial expansion (histopathology): less pronounced
C57BLKS db/db mice [2]
  effect on Hb1C: did not affect
  effect on blood sugar: did not affect
  effect on body weight gain: did not affect
